Legend:
cytochrome P450 OleP [1] = molecular target: T1, cytochrome P450 OleP (Streptomyces antibioticus, UniProt Q59819); assay: UV-visible equilibrium titration (Type I Soret shift); crystal structure of the ternary complex with L-rhamnose ([…] Å); type: binding
T1 construct: wild type enzyme
T1 sequence (Q59819 1-407): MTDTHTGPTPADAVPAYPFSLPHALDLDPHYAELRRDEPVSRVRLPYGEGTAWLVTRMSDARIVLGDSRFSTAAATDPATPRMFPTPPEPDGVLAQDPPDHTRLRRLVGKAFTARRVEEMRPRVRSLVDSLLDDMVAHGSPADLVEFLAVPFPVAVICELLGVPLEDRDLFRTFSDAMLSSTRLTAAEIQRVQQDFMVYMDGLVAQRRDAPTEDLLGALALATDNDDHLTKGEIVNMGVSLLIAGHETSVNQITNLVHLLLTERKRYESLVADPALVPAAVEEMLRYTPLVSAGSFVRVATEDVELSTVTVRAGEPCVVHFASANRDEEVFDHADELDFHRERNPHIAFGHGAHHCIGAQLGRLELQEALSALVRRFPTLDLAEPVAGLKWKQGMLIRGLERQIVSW

cytochrome P450 OleP [2] = molecular target: T1, cytochrome P450 OleP; assay: UV-visible equilibrium titration (Type I Soret shift); crystal structures 6ZHZ, 6ZI2 and 6ZI7; type: binding

Row | Kd (cytochrome P450 OleP [1]) [µM] | Kd (cytochrome P450 OleP [2]) [µM] | Structure (SMILES)
1 | 3.2 ± 0.1 | – | CC[C@H]1OC(=O)[C@H](C)[C@@H](O)[C@H](C)[C@@H](O)[C@@H](C)C[C@@H](C)C(=O)[C@H](C)[C@@H](O)[C@H]1C [6DEB, 6-deoxyerythronolide B]
2 | – | 23 ± 2 | C[C@@H]1[C@@H](O)[C@@H](C)C[C@H](C)C(=O)[C@H](C)[C@@H](O)[C@@H](C)[C@@H](C)OC(=O)[C@H](C)[C@H]1O [DEO, 8.8a-deoxyoleandolide]

Reference: paper PMC7600006, “Dissecting the Cytochrome P450 OleP Substrate Specificity: Evidence for a Preferential Substrate” (Biomolecules, 2020)
